This note sets out measurements from patent US20230312481A1, “SUBSTITUTED (PHTHALAZIN-1-YLMETHYL)UREAS, SUBSTITUTED N-(PHTHALAZIN-1-YLMETHYL)AMIDES, AND ANALOGUES THEREOF” (priority 2020, published 2023).

A word on the EC50: it is the concentration at which the effect is half-maximal.

One assay has as its system HBV rcDNA in HepDE19 cells. Briefly: HepDE19 assay with bDNA quantitation of HBV rcDNA. Particulars: HepDE19 cells, 7 day incubation, rcDNA measured by Quantigene 2.0 bDNA assay; top concentration 25 µM; read-out: DE-19bDNA EC50. Type of assay: cell-based, hepatitis B virus. The procedure: HepDE19 Assay With bDNA Quantitation of HBV rcDNA
HepDE19 (50,000 cells/well) were plated in 96-well collagen-coated tissue-culture treated microtiter plates in DMEM/F12 medium supplemented with 10% fetal bovine serum, 1% penicillin-streptomycin and 1 µg/mL tetracycline and incubated in a humidified incubator at 37° C. and 5% CO2 overnight. Next day, the cells were switched to fresh medium without tetracycline and incubated for 4 hours at 37° C. and 5% CO2. […] The final DMSO concentration in the assay was 0.5%. The plates were incubated for 7 days in a humidified incubator at 37° C. and 5% CO2. Following a 7 day-incubation, the level of rcDNA present in the inhibitor-treated wells was measured using a Quantigene 2.0 bDNA assay kit (Affymetrix, Santa Clara, CA) with HBV specific custom probe set and manufacturers instructions. Concurrently, the effect of compounds on cell viability was assessed using replicate plates, plated at a density of 5,000 cells/well and incubated for 4 days, to determine the ATP content as a measure of cell viability using the cell-titer glo reagent (CTG; Promega Corporation, Madison, WI) as per manufacturer’s instructions.
Representative compounds of the disclosure were tested for their abilities to inhibit formation of relaxed circular DNA (rcDNA) in a HepDE19 assay, as described elsewhere herein.
On to `CC(c1n[nH]c(=O)c2ccccc12)N(C)C(=O)Nc1ccc(F)c(Cl)c1` (single isomer, unassigned) [Compound 3, 3-(3-chloro-4-fluoro-phenyl)-1-methyl-1-[1-(4-oxo-3H-phthalazin-1-yl)ethyl]urea], for which the EC50 was found to be 14000 nM.

`CC(c1n[nH]c(=O)c2ccccc12)N(C)C(=O)Nc1ccc(F)c(Cl)c1` (single isomer, unassigned) [Compound 4, 3-(3-chloro-4-fluoro-phenyl)-1-methyl-1-[1-(4-oxo-3H-phthalazin-1-yl)ethyl]urea]: the half-maximal effective concentration (EC50) was determined as 200 nM.

Consider `CC(C)CN(C(=O)Nc1ccc(F)c(Cl)c1)C(C)c1n[nH]c(=O)c2ccccc12` (single isomer, unassigned) [Compound 5, 3-(3-chloro-4-fluoro-phenyl)-1-isobutyl-1-[1-(4-oxo-3H-phthalazin-1-yl)ethyl]urea], for which the concentration for a half-maximal effect (EC50) was 10 nM.

The assay is the same for the next values; noted with them: Hepatitis B virus, HepDE19, 168 h, HepDE19 cells, 7 day incubation, rcDNA measured by Quantigene 2.0 bDNA assay; top concentration 25 µM; read-out: DE-19bDNA EC50.
For `CC(c1n[nH]c(=O)c2cc(F)c(F)cc12)N(C)C(=O)c1cc2cc(F)c(F)cc2[nH]1` (racemic) [Compound 50, N-(1-(6,7-difluoro-4-oxo-3,4-dihydrophthalazin-1-yl)ethyl)-5,6-difluoro-N-methyl-1H-indole-2-carboxamide], the concentration giving a half-maximal response (EC50) is 40 nM.

As for `CC(c1n[nH]c(=O)c2cc(F)c(F)cc12)N(C)C(=O)c1cc2ccc(F)cc2[nH]1` (racemic) [Compound 52, N-(1-(6,7-difluoro-4-oxo-3,4-dihydrophthalazin-1-yl)ethyl)-6-fluoro-N-methyl-1H-indole-2-carboxamide], the EC50 worked out at 43 nM.

`CC(c1n[nH]c(=O)c2cc(F)c(F)cc12)N(C)C(=O)c1cc2c(F)cccc2[nH]1` (racemic) [Compound 53, N-(1-(6,7-difluoro-4-oxo-3,4-dihydrophthalazin-1-yl)ethyl)-4-fluoro-N-methyl-1H-indole-2-carboxamide]: the EC50 came out at 83 nM.

With `CC(c1n[nH]c(=O)c2cc(F)c(F)cc12)N(C)C(=O)c1cc2c(F)c(F)ccc2[nH]1` (racemic) [Compound 54, N-(1-(6,7-difluoro-4-oxo-3,4-dihydrophthalazin-1-yl)ethyl)-4,5-difluoro-N-methyl-1H-indole-2-carboxamide], the EC50 came out at 24 nM.

In the case of `Cc1c(C(=O)N(C)C(C)c2n[nH]c(=O)c3cc(F)c(F)cc23)[nH]c2ccccc12` (racemic) [Compound 55, N-(1-(6,7-difluoro-4-oxo-3,4-dihydrophthalazin-1-yl)ethyl)-N,3-dimethyl-1H-indole-2-carboxamide], the EC50 amounted to 440 nM.

Regarding `CC(C)CN(C(=O)c1cc2ccccc2[nH]1)C(C)c1n[nH]c(=O)c2cc(F)c(F)cc12` (racemic) [Compound 56, N-(1-(6,7-difluoro-4-oxo-3,4-dihydrophthalazin-l-yl)ethyl)-N-isobutyl-1H-indole-2-carboxamide], the concentration giving a half-maximal response (EC50) turned out to be 390 nM.

With `CC(c1n[nH]c(=O)c2cc(F)c(F)cc12)N(C)C(=O)c1cc2c(F)cc(F)cc2[nH]1` (racemic) [Compound 60, N-(1-(6,7-difluoro-4-oxo-3,4-dihydrophthalazin-1-yl)ethyl)-4,6-difluoro-N-methyl-1H-indole-2-carboxamide], the EC50 was determined as 50 nM.

With `CC(c1n[nH]c(=O)c2cc(F)c(F)cc12)N(C)C(=O)c1ccc(C(F)(F)F)c(F)c1` (racemic) [Compound 62, N-(1-(6,7-difluoro-4-oxo-3,4-dihydrophthalazin-1-yl)ethyl)-3-fluoro-N-methyl-4-(trifluoromethyl)benzamide], the EC50 is 100 nM.

Take `CC(c1n[nH]c(=O)c2cc(F)c(F)cc12)N(C)C(=O)c1ccc(Br)c(F)c1` (racemic) [Compound 63, 4-bromo-N-(1-(6,7-difluoro-4-oxo-3,4-dihydrophthalazin-1-yl)ethyl)-3-fluoro-N-methylbenzamide]: the 50% effective concentration (EC50) came out at 60 nM.

Consider `CC(c1n[nH]c(=O)c2cc(F)c(F)cc12)N(C)C(=O)c1ccc(Cl)c(F)c1` (racemic) [Compound 64, 4-chloro-N-(1-(6,7-difluoro-4-oxo-3,4-dihydrophthalazin-1-yl)ethyl)-3-fluoro-N-methylbenzamide], for which the EC50 came out at 140 nM.

Consider `CC(c1n[nH]c(=O)c2cc(F)c(F)cc12)N(C)C(=O)c1ccc(Br)cc1` (racemic) [Compound 65, 4-bromo-N-(1-(6,7-difluoro-4-oxo-3,4-dihydrophthalazin-1-yl)ethyl)-N-methylbenzamide], for which the concentration for a half-maximal effect (EC50) turned out to be 60 nM.

For `CC(c1n[nH]c(=O)c2cc(F)c(F)cc12)N(C)C(=O)c1ccc(C(F)(F)F)cc1` (racemic) [Compound 66, N-(1-(6,7-difluoro-4-oxo-3,4-dihydrophthalazin-1-yl)ethyl)-N-methyl-4-(trifluoromethyl)benzamide], the EC50 was determined as 100 nM.

With `CC(c1n[nH]c(=O)c2cc(F)c(F)cc12)N(C)C(=O)c1cc(F)c(F)c(F)c1` (racemic) [Compound 67, N-(1-(6,7-difluoro-4-oxo-3,4-dihydrophthalazin-1-yl)ethyl)-3,4,5-trifluoro-N-methylbenzamide], the EC50 is 740 nM.

As for `CC(c1n[nH]c(=O)c2cc(F)c(F)cc12)N(C)C(=O)c1ccc(F)c(Cl)c1` (racemic) [Compound 68, 3-chloro-N-(1-(6,7-difluoro-4-oxo-3,4-dihydrophthalazin-1-yl)ethyl)-4-fluoro-N-methylbenzamide], the EC50 was 520 nM.

As for `CC(c1n[nH]c(=O)c2cc(F)c(F)cc12)N(C)C(=O)c1ccc(F)c(F)c1` (racemic) [Compound 70, N-(1-(6,7-difluoro-4-oxo-3,4-dihydrophthalazin-1-yl)ethyl)-3,4-difluoro-N-methylbenzamide], the concentration for a half-maximal effect (EC50) was 890 nM.

Regarding `CC(c1n[nH]c(=O)c2cc(F)c(F)cc12)N(C)C(=O)c1cccc(C(F)F)c1` (racemic) [Compound 71, N-(1-(6,7-difluoro-4-oxo-3,4-dihydrophthalazin-1-yl)ethyl)-3-(difluoromethyl)-N-methylbenzamide], the concentration for a half-maximal effect (EC50) came out at 220 nM.

Regarding `CC(c1n[nH]c(=O)c2cc(F)c(F)cc12)N(C)C(=O)c1ccc(F)c(C(F)F)c1` (racemic) [Compound 72, N-(1-(6,7-difluoro-4-oxo-3,4-dihydrophthalazin-1-yl)ethyl)-3-(difluoromethyl)-4-fluoro-N-methylbenzamide], the EC50 is 340 nM.

For the compound `CC(c1n[nH]c(=O)c2cc(F)c(F)cc12)N(C)C(=O)Nc1ccc(F)c(C(F)F)c1` (racemic) [Compound 73, 1-(1-(6,7-difluoro-4-oxo-3,4-dihydrophthalazin-1-yl)ethyl)-3-(3-(difluoromethyl)-4-fluorophenyl)-1-methylurea], the EC50 was 20 nM.

In the case of `CC(c1n[nH]c(=O)c2cc(F)c(F)cc12)N(C)C(=O)c1cc2c(Cl)cccn2c1` (racemic) [Compound 75, 8-chloro-N-(1-(6,7-difluoro-4-oxo-3,4-dihydrophthalazin-1-yl)ethyl)-N-methylindolizine-2-carboxamide], the EC50 is 60 nM.

As to `CC(c1n[nH]c(=O)c2cc(F)c(F)cc12)N(C)C(=O)Nc1ccc(F)c(C#N)c1` (racemic) [Compound 76, 3-(3-cyano-4-fluorophenyl)-1-(1-(6,7-difluoro-4-oxo-3,4-dihydrophthalazin-1-yl)ethyl)-1-methylurea], the EC50 came to 40 nM.

Turning to `CC(c1n[nH]c(=O)c2cc(F)c(F)cc12)N(C)C(=O)c1cc2c(F)cccn2c1` (racemic) [Compound 77, N-(1-(6,7-difluoro-4-oxo-3,4-dihydrophthalazin-1-yl)ethyl)-8-fluoro-N-methylindolizine-2-carboxamide], the EC50 is 8380 nM.

For the compound `CC(c1n[nH]c(=O)c2cc(F)c(F)cc12)N(C)C(=O)c1cnc(C(F)(F)F)c(F)c1` (racemic) [Compound 114, N-(1-(6,7-difluoro-4-oxo-3,4-dihydrophthalazin-1-yl)ethyl)-5-fluoro-N-methyl-6-(trifluoromethyl)nicotinamide], the concentration giving a half-maximal response (EC50) was determined as 4180 nM.

The assay is the same for the next values; noted with them: Hepatitis B virus, HepDE19, 168 h, read-out: DE-19bDNA EC50.
With `CC(c1n[nH]c(=O)c2cc(F)c(F)cc12)N(C)C(=O)c1cc2cc(F)ccc2[nH]1` (racemic) [Compound 51, N-(1-(6,7-difluoro-4-oxo-3,4-dihydrophthalazin-1-yl)ethyl)-5-fluoro-N-methyl-1H-indole-2-carboxamide], the half-maximal effective concentration (EC50) came out at 39 nM.

Take `CC(c1n[nH]c(=O)c2cc(F)c(F)cc12)N(C)C(=O)c1cc2ccccn2c1` (racemic) [Compound 59, N-(1-(6,7-difluoro-4-oxo-3,4-dihydrophthalazin-1-yl)ethyl)-N-methylindolizine-2-carboxamide]: the EC50 was 130 nM.

With `CC(c1n[nH]c(=O)c2cc(F)c(F)cc12)N(C)C(=O)c1ccc(Cl)cc1` (racemic) [Compound 69, 4-chloro-N-(1-(6,7-difluoro-4-oxo-3,4-dihydrophthalazin-1-yl)ethyl)-N-methylbenzamide], the concentration giving a half-maximal response (EC50) came out at 200 nM.

For the compound `CC(c1n[nH]c(=O)c2cc(F)c(F)cc12)N(C)C(=O)c1ccccc1` (racemic) [Compound 74, N-(1-(6,7-difluoro-4-oxo-3,4-dihydrophthalazin-1-yl)ethyl)-N-methylbenzamide], the 50% effective concentration (EC50) turned out to be 17700 nM.
